Source: patent publication US12281080B2, “Quinoline-based compounds and methods of inhibiting CDK8/19” (University of South Carolina, priority 2018, dated 2025)

Tests used:
Test in all cases: KINOMEscan scanMAX
NEK6 = NEK6 (Homo sapiens (Human), UniProt Q9HC98); type: binding; settings: 2000 nM; read-out: Percent Control
LTK = LTK (Homo sapiens (Human), UniProt P29376); type: binding; settings: 2000 nM; read-out: Percent Control
CAMK1 = CAMK1 (Homo sapiens (Human), UniProt Q14012); type: binding; settings: 2000 nM; read-out: Percent Control
IKK-epsilon (IKBKE) = IKK-epsilon (IKBKE) (Homo sapiens (Human), UniProt Q14164); type: binding; settings: 2000 nM; read-out: Percent Control
EPHA2 = EPHA2 (Homo sapiens (Human), UniProt P29317); type: binding; settings: 2000 nM; read-out: Percent Control
BUB1 = BUB1 (Homo sapiens (Human), UniProt O43683); type: binding; settings: 2000 nM; read-out: Percent Control
MEK6 (MAP2K6) = MEK6 (MAP2K6) (Homo sapiens (Human), UniProt P52564); type: binding; settings: 2000 nM; read-out: Percent Control
PIK3C2B = PIK3C2B (Homo sapiens (Human), UniProt O00750); type: binding; settings: 2000 nM; read-out: Percent Control
IKK-beta (IKBKB) = IKK-beta (IKBKB) (Homo sapiens (Human), UniProt O14920); type: binding; settings: 2000 nM; read-out: Percent Control
Chain of IKK-beta (IKBKB) (O14920 whole entry): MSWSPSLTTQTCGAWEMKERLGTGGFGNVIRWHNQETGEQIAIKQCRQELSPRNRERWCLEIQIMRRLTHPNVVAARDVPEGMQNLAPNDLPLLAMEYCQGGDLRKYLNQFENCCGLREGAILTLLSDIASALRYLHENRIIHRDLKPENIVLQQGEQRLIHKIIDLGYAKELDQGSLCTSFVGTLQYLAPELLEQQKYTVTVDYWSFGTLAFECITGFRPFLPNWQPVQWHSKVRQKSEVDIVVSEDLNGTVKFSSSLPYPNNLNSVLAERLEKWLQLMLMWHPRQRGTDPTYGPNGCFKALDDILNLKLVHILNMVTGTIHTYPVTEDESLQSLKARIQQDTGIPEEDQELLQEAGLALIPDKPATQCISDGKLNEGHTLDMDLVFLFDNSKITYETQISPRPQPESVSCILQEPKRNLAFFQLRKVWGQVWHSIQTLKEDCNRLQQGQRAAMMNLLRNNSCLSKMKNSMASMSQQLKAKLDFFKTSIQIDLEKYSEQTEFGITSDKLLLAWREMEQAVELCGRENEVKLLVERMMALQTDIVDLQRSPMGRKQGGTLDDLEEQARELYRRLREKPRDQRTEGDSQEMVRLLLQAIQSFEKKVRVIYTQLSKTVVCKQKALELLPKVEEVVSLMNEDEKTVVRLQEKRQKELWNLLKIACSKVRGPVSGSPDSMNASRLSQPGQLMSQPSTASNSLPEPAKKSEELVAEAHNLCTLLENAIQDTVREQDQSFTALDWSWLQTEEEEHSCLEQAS

[1] = target: PKNB(M.tuberculosis) (pknB) (Mycobacterium tuberculosis (strain ATCC 25618 / H37Rv), UniProt P9WI81); type: binding; settings: 2000 nM; read-out: Percent Control
SIK2 = SIK2 (Homo sapiens (Human), UniProt Q9H0K1); type: binding; settings: 2000 nM; read-out: Percent Control
PAK1 = PAK1 (Homo sapiens (Human), UniProt Q13153); type: binding; settings: 2000 nM; read-out: Percent Control
CAMK2D = CAMK2D (Homo sapiens (Human), UniProt Q13557); type: binding; settings: 2000 nM; read-out: Percent Control
DYRK1B = DYRK1B (Homo sapiens (Human), UniProt Q9Y463); type: binding; settings: 2000 nM; read-out: Percent Control
BMPR1B = BMPR1B (Homo sapiens (Human), UniProt O00238); type: binding; settings: 2000 nM; read-out: Percent Control
EGFR(E746-A750del) = EGFR(E746-A750del) (Homo sapiens (Human), UniProt P00533, DEL746-750); type: binding; settings: 2000 nM; read-out: Percent Control
HIPK1 = HIPK1 (Homo sapiens (Human), UniProt Q86Z02); type: binding; settings: 2000 nM; read-out: Percent Control
YANK2 (STK32B) = YANK2 (STK32B) (Homo sapiens (Human), UniProt Q9NY57); type: binding; settings: 2000 nM; read-out: Percent Control
PDGFRB = PDGFRB (Homo sapiens (Human), UniProt P09619); type: binding; settings: 2000 nM; read-out: Percent Control
NEK1 = NEK1 (Homo sapiens (Human), UniProt Q96PY6); type: binding; settings: 2000 nM; read-out: Percent Control
FLT3(ITD, F691L) = type: binding, human; settings: 2000 nM
CDC2L1 (CDK11B) = CDC2L1 (CDK11B) (Homo sapiens (Human), UniProt P21127); type: binding; settings: 2000 nM; read-out: Percent Control
YANK3 (STK32C) = YANK3 (STK32C) (Homo sapiens (Human), UniProt Q86UX6); type: binding; settings: 2000 nM; read-out: Percent Control
CIT = CIT (Homo sapiens (Human), UniProt O14578); type: binding; settings: 2000 nM; read-out: Percent Control
Chain of CIT (O14578 whole entry): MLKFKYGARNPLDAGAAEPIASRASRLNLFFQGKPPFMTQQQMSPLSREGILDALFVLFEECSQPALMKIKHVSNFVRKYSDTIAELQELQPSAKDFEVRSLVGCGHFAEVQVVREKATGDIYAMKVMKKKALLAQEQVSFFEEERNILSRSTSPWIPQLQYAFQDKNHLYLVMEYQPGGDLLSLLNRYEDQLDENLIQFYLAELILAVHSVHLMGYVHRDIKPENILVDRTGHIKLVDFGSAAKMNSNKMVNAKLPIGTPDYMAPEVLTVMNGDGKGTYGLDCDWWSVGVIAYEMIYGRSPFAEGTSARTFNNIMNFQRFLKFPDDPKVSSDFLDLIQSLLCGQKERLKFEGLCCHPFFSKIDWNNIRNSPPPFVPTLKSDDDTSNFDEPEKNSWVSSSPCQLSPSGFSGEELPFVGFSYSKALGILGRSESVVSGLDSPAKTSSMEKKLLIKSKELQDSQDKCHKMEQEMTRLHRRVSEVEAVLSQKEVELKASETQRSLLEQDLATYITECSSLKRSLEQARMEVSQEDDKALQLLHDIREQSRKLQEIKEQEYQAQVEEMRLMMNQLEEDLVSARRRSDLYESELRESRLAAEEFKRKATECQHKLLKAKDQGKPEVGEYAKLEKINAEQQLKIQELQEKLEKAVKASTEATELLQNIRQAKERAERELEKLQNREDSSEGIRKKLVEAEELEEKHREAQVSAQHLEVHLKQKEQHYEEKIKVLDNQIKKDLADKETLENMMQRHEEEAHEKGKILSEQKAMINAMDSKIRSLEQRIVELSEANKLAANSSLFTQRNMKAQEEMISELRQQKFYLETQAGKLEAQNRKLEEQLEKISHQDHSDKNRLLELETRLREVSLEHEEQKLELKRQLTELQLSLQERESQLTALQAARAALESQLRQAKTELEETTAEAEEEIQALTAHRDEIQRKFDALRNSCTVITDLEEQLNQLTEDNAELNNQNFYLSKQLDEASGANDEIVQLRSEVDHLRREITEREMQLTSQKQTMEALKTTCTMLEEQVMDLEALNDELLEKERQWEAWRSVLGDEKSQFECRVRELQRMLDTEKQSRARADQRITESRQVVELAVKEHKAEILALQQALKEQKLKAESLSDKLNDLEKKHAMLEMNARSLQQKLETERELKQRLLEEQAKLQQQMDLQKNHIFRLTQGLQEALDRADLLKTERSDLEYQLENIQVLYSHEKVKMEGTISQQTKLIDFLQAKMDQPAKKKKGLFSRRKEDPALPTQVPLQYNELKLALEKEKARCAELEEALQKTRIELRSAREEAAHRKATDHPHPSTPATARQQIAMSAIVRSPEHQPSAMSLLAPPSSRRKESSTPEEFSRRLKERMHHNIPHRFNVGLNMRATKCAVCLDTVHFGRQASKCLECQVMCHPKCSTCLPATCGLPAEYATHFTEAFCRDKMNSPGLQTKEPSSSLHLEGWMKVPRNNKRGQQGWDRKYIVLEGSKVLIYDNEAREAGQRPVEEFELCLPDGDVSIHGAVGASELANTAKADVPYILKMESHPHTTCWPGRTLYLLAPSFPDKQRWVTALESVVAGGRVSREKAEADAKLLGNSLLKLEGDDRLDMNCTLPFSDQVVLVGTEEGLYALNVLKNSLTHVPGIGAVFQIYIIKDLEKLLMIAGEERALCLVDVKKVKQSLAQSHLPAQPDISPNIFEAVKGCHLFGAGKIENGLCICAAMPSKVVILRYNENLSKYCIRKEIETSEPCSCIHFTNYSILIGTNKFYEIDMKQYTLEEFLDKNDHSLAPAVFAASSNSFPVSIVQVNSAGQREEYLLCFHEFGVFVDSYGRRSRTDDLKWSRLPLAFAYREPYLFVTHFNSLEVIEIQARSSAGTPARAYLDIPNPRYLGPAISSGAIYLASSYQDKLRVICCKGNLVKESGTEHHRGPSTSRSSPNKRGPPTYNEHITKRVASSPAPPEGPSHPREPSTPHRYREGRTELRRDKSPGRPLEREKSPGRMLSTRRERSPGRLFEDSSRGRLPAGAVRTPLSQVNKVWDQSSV

WNK1 = WNK1 (Homo sapiens (Human), UniProt Q9H4A3); type: binding; settings: 2000 nM; read-out: Percent Control
Chain of WNK1 (Q9H4A3 whole entry): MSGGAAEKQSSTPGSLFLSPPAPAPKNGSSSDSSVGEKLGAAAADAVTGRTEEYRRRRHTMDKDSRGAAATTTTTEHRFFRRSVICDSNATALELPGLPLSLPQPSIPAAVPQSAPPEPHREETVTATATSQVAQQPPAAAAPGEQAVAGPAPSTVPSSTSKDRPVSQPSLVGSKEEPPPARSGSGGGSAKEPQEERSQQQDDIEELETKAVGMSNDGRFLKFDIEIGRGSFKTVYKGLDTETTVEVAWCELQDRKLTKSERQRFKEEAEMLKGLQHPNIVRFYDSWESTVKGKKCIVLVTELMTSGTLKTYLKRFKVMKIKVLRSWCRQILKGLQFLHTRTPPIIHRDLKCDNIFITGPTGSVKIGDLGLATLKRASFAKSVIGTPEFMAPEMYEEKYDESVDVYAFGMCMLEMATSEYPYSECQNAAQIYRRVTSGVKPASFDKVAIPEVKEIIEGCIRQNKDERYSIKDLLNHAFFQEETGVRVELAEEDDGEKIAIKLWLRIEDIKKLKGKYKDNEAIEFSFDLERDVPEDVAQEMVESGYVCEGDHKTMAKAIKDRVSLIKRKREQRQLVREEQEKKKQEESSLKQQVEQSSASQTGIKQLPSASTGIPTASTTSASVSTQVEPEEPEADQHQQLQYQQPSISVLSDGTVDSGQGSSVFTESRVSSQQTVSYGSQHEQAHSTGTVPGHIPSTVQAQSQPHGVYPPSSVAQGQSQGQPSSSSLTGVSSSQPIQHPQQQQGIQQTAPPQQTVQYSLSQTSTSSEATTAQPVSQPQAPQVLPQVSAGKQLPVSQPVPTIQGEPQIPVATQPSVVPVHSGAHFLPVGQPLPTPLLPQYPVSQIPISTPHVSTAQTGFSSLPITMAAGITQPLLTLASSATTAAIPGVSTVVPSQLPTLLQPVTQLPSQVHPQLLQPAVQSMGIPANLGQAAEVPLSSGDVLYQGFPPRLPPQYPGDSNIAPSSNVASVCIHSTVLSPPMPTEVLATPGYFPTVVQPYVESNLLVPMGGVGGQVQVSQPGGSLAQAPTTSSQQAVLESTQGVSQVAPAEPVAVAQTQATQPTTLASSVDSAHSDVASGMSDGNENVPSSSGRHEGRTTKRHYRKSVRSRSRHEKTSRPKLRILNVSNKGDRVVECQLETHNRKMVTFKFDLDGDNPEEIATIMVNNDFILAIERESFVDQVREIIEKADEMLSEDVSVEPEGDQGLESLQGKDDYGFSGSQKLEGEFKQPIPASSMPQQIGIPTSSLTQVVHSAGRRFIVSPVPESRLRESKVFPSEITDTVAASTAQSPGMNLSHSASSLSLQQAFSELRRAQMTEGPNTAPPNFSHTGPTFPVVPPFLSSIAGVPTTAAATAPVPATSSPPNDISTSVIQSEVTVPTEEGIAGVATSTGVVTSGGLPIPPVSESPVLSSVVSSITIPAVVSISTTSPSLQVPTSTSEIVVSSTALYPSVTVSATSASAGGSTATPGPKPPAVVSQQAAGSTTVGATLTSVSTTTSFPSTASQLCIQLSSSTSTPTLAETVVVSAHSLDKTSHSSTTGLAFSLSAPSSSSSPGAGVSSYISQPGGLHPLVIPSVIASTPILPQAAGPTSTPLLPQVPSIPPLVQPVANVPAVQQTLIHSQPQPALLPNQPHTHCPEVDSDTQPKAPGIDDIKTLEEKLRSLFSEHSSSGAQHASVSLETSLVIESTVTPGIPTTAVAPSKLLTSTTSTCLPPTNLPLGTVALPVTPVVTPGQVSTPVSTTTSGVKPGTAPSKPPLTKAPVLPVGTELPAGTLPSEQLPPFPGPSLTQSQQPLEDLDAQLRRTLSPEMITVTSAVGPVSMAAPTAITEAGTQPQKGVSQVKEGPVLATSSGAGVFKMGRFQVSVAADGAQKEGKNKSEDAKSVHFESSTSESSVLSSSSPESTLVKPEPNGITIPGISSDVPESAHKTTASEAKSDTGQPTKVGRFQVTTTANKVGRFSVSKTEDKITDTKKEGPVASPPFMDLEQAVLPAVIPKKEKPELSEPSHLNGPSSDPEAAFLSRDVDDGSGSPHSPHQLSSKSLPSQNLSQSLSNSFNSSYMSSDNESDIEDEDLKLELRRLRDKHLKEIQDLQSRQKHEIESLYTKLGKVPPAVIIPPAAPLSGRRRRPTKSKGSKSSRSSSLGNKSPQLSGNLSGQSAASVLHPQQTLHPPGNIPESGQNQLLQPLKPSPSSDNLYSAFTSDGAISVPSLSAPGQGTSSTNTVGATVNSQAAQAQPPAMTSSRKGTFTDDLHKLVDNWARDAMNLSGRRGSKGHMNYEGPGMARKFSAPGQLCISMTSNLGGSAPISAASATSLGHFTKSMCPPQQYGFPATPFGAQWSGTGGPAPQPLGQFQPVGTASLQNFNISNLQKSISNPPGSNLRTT

TAOK3 = TAOK3 (Homo sapiens (Human), UniProt Q9H2K8); type: binding; settings: 2000 nM; read-out: Percent Control
YANK1 (STK32A) = YANK1 (STK32A) (Homo sapiens (Human), UniProt Q8WU08); type: binding; settings: 2000 nM; read-out: Percent Control
PIK3CA(C420R) = PIK3CA(C420R) (Homo sapiens (Human), UniProt P42336, C420R); type: binding; settings: 2000 nM; read-out: Percent Control
CHEK2 = CHEK2 (Homo sapiens (Human), UniProt O96017); type: binding; settings: 2000 nM; read-out: Percent Control
[2] = target: JAK3(JH1domain-catalytic) (Homo sapiens (Human), UniProt P52333); type: binding; settings: 2000 nM; read-out: Percent Control
DDR2 = DDR2 (Homo sapiens (Human), UniProt Q16832); type: binding; settings: 2000 nM; read-out: Percent Control
WEE2 = WEE2 (Homo sapiens (Human), UniProt P0C1S8); type: binding; settings: 2000 nM; read-out: Percent Control
ERBB2 = ERBB2 (Homo sapiens (Human), UniProt P04626); type: binding; settings: 2000 nM; read-out: Percent Control
PAK4 = PAK4 (Homo sapiens (Human), UniProt O96013); type: binding; settings: 2000 nM; read-out: Percent Control
EPHB1 = EPHB1 (Homo sapiens (Human), UniProt P54762); type: binding; settings: 2000 nM; read-out: Percent Control
CDK4-cyclinD1 = CDK4-cyclinD1 (Homo sapiens (Human), UniProt P11802); type: binding; settings: 2000 nM; read-out: Percent Control
TRKB (NTRK2) = TRKB (NTRK2) (Homo sapiens (Human), UniProt Q16620); type: binding; settings: 2000 nM; read-out: Percent Control
LOK (STK10) = LOK (STK10) (Homo sapiens (Human), UniProt O94804); type: binding; settings: 2000 nM; read-out: Percent Control
SBK1 = SBK1 (Homo sapiens (Human), UniProt Q52WX2); type: binding; settings: 2000 nM; read-out: Percent Control
MAST1 = MAST1 (Homo sapiens (Human), UniProt Q9Y2H9); type: binding; settings: 2000 nM; read-out: Percent Control

Structure (SMILES): CN1CCN(C(=O)c2ccc3cc(CCNc4ccnc5ccc(C#N)cc45)ccc3c2)CC1 [compound 6148, 4-((2-(6-(4-methylpiperazine-1-carbonyl)naphthalen-2-yl)ethyl)amino)quinoline-6-carbonitrile]
- remaining binding at 2 µM (NEK6): 93%
- remaining binding at 2 µM (LTK): 93%
- remaining binding at 2 µM (CAMK1): 84%
- remaining binding at 2 µM (IKK-epsilon (IKBKE)): 91%
- remaining binding at 2 µM (EPHA2): 100%
- remaining binding at 2 µM (BUB1): 68%
- remaining binding at 2 µM (MEK6 (MAP2K6)): 80%
- remaining binding at 2 µM (PIK3C2B): 80%
- remaining binding at 2 µM (IKK-beta (IKBKB)): 76%
- remaining binding at 2 µM [1]: 93%
- remaining binding at 2 µM (SIK2): 100%
- remaining binding at 2 µM (PAK1): 92%
- remaining binding at 2 µM (CAMK2D): 94%
- remaining binding at 2 µM (DYRK1B): 83%
- remaining binding at 2 µM (BMPR1B): 70%
- remaining binding at 2 µM (EGFR(E746-A750del)): 100%
- remaining binding at 2 µM (HIPK1): 73%
- remaining binding at 2 µM (YANK2 (STK32B)): 89%
- remaining binding at 2 µM (PDGFRB): 94%
- remaining binding at 2 µM (NEK1): 84%
- Percent Control (FLT3(ITD, F691L)): 59%
- remaining binding at 2 µM (CDC2L1 (CDK11B)): 96%
- remaining binding at 2 µM (YANK3 (STK32C)): 100%
- remaining binding at 2 µM (CIT): 48%
- remaining binding at 2 µM (WNK1): 72%
- remaining binding at 2 µM (TAOK3): 79%
- remaining binding at 2 µM (YANK1 (STK32A)): 76%
- remaining binding at 2 µM (PIK3CA(C420R)): 73%
- remaining binding at 2 µM (CHEK2): 98%
- remaining binding at 2 µM [2]: 65%
- remaining binding at 2 µM (DDR2): 64%
- remaining binding at 2 µM (WEE2): 95%
- remaining binding at 2 µM (ERBB2): 73%
- remaining binding at 2 µM (PAK4): 97%
- remaining binding at 2 µM (EPHB1): 92%
- remaining binding at 2 µM (CDK4-cyclinD1): 83%
- remaining binding at 2 µM (TRKB (NTRK2)): 57%
- remaining binding at 2 µM (LOK (STK10)): 94%
- remaining binding at 2 µM (SBK1): 57%
- remaining binding at 2 µM (MAST1): 96%
